Experimental data reported in article PMC11820680, “Synthesis of (1,10-Phenanthroline-κ^2N,N′)(β^2-Methyl- and β^2-PhenylAlaninate-κ^2N,O)Copper(II) Nitrate Complexes and Their Antiproliferative Activity on MCF-7 and A549 Cancer Cell Lines” (Molecules, 2025).
Like-named read-outs stand apart in the source and are kept apart here.

How the values were obtained:
HaCaT [1] = conditions: 24 h, MTS
[2] = tested on: A549, MCF-7, HEK293, and HaCaT cell cultures; assay: Acridine orange / propidium iodide staining, epifluorescence microscopy; assay type: cell-based
Excerpt: The purpose of using acridine orange (AO) and propidium iodide (PI) is to take advantage of their introduction of viable cells (AO) and non-viable cells (AO/PI) by their intercalating ability in DNA of cells, which by excitation with a wavelength of 400 nm emit radiation of lower energy and longer wavelength (green and red light, respectively). This technique allows differentiating the distinct states in which a cell is found; AO is able to cross the cell membrane regardless of its membrane integrity, so the compound stains all cells, emitting green light and, in some cases, orange if it binds to RNA or where there is high lysosomal activity. PI penetrates the cell when its membrane is damaged by intercalating with higher affinity to DNA and emits red color, eclipsing the intensity caused by AO staining. Briefly, the protocol used for this technique was: 0.5×10^6 cells/mL of A549, MCF-7, HEK293, and HaCaT cells were seeded in 24-well plates on round glass coverslips. All cell cultures were treated with complexes 3 and 4 with the IC50 calculated previously. At 12 h, the coverslips were removed from the wells. Later, 5 μL of a 1:1 mixture of the dyes (50 μg/mL of AO and 100 μg/mL of PI) was added to 5 μL of sample and coverslips were flipped and placed on a slide for observation.

A549 (lung cancer) [3] = conditions: for IC50: A549, 24 h, MTS; for Selectivity Index (SI): IC50(HaCaT)/IC50(A549)
[4] = tested on: A549, MCF-7, HEK293, and HaCaT cell cultures; assay: Apoptosis detection with annexin V FITC and propidium iodide; assay type: cell-based; conditions: at IC50, 12 h
Description: Annexin V detects apoptosis by binding to phosphatidylserine, which during this process is exposed in the outer layer of the cell membrane. Its conjugation with fluorochromes such as FITC allows visualization of this binding by epifluorescence microscopy in the green channel. The detection of apoptosis was determined with the annexin V kit conjugated with the fluorophore FITC (Thermo, cat. 88-8005-72) under the following protocol: 0.5 × 10^6 cells/mL of A549, MCF-7, HEK293, and HaCaT cells were seeded in 24-well plates on round glass coverslips treated with L-polylysine. […] Cultures were incubated for 12 h under standard culture conditions. Subsequently, the cells were washed with 500 μL of cold PBS and incubated for 5 min in a 1X solution of annexin-binding buffer. Next, 15 μL of annexin V conjugate and 5 μL of propidium iodide (PI) were added, and the mixture was incubated over 15 min at room temperature. After washing with 1X buffer, the cells were observed using an epifluorescence microscope (Nikon Eclipse E400). The red channel (TRITC) identified necrosis due to PI intercalation, while the green channel (FITC) detected apoptosis through binding of the phosphatidylserine–annexin V complex.

MCF-7 (breast cancer) [5] = conditions: for Selectivity Index (SI): IC50(HaCaT)/IC50(MCF-7); for IC50: MCF-7, 24 h, MTS
[6] = tested on: A549, MCF-7, HEK293, and HaCaT cell cultures; assay: DNA fragmentation assay (agarose gel); assay type: cell-based
Excerpt: DNA fragmentation is a characteristic process of apoptosis. During apoptosis, cell DNA is broken into fragments of specific sizes (multiples of 180–200 bp) due to the action of nucleases activated by effector caspases (caspase-3, caspase-7, and caspase-6). To visualize DNA fragmentation on agarose gels, cultures of MCF-7, A549, HEK293, and HaCaT cells treated with complexes 3 and 4 were harvested under the same conditions as the acridine orange/propidium iodide assay and their nuclei stained. Cell cultures were treated with complexes 3 and 4 using the IC50 calculated previously. Cultures were harvested and centrifuged at 12,000 rpm; pellets were washed twice with PBS and resuspended in lysis buffer (10 mM Tris-HCl (pH 7.4), 5 mM EDTA, 0.2% Triton X-100) with RNase and incubated for 1 h at 37 °C. […]. Proteinase K was then added and incubated for 2 h at 55 °C. Extraction was performed with phenol:chloroform:isoamyl. To precipitate DNA, 96% ethanol, 10 M ammonium acetate, and glycogen were added. Finally, the samples were resuspended in 1X Buffer TE and stored at −20 °C. DNA was electrophoretically separated on a 2% agarose gel with ethidium bromide and visualized by UV transillumination.

[7] = tested on: A549, MCF-7, HEK293, and HaCaT cell cultures; assay: Nuclei staining with Hoechst 33258; assay type: cell-based
Excerpt: Hoechst dyes are excited by UV light (~360 nm) and emit a broad spectrum of blue light with a maximum at 460 nm. Upon binding to DNA, they increase their fluorescence 30-fold, which ensures a good signal-to-noise ratio. This increase in fluorescence is due to the suppression of rotational relaxation and reduced hydration upon binding to DNA. These dyes are not intercalating; they bind to the minor groove of the DNA in the A-T rich regions. Hoechst dyes are often used to distinguish condensed pyknotic nuclei in apoptotic cells. Briefly, the Hoechst dye stock solution was prepared by dissolving the contents of one vial (100 mg) in 10 mL of deionized water to create a 10 mg/mL (16.23 mM) solution. Then, 5×10^5 cells/mL of A549, MCF-7, HEK293, and HaCaT cells were seeded in 24-well plates on round glass coverslips. Cell cultures were treated with the complexes 3 and 4 using the IC50 calculated previously. At 12 h, the coverslips were removed from the wells. Cells were fixed by adding 200 μL of 4% paraformaldehyde. Later, cells were incubated at 37 °C for 30 min and washed 2 times with PBS. Then, 200 μL Hoechst 33258 (1:1000) was added to the sample and protected from light following incubation at room temperature for 30 min. Subsequently, they were washed 2 times with PBS.

HEK293 [8] = conditions: HEK293, 24 h, MTS
[9] = tested on: A549, MCF-7, HaCaT and HEK293 cell lines; conditions: for IC50: all the cell lines tested; for increase in potency over cisplatin: considering the concentrations used to determine the IC50
HaCaT [10] = tested on: HaCaT; parameters: method as in doi:10.1016/j.ica.2020.119542; conditions: value taken from previous work ref 16; cited from earlier work
HEK293 [11] = tested on: HEK293; parameters: method as in doi:10.1016/j.ica.2020.119542; conditions: value taken from previous work ref 16; cited from earlier work
[12] = tested on: A549, MCF-7, HaCaT and HEK293 cell lines; conditions: previously calculated value for the cell lines evaluated; cited from earlier work
MCF-7 (breast cancer) [13] = tested on: MCF-7 (breast cancer); parameters: method as in doi:10.1016/j.ica.2020.119542; conditions: value taken from previous work ref 16; cited from earlier work
A549 (lung cancer) [14] = tested on: A549 (lung cancer); parameters: method as in doi:10.1016/j.ica.2020.119542; conditions: value taken from previous work ref 16; cited from earlier work
[15] = complexes at IC50 of Table 5, 12 h

Molecule | IC50 (HaCaT [1]) | morphology, AO/PI staining ([2]; complexes at IC50, 12 h) | IC50 (A549 (lung cancer) [3]) | Selectivity Index (SI) (A549 (lung cancer) [3]) | annexin V-FITC / PI fluorescence [4] | Selectivity Index (SI) (MCF-7 (breast cancer) [5]) | IC50 (MCF-7 (breast cancer) [5]) | DNA fragmentation pattern ([6]; complexes at IC50 of Table 5) | nuclear morphology, Hoechst 33258 [7, 15] | IC50 (HEK293 [8]) | IC50 [9] | increase in potency over cisplatin [9] | IC50 (HaCaT [10]) | IC50 (HEK293 [11]) | morphology, AO/PI staining ([2]; cisplatin 25 µM) | IC50 [12] | IC50 (MCF-7 (breast cancer) [13]) | IC50 (A549 (lung cancer) [14]) | DNA fragmentation pattern ([6]; cisplatin 25 µM) | nuclear morphology, Hoechst 33258 ([7]; cisplatin 25 µM)
ethanol(1,10-phenanthroline-κ^2N,N’)(β^2-phenylalaninate-κ^2N,O)copper(II) nitrate [Compound 4] | 0.35 ± 0.09 µM | induced morphological features that, in principle, indicate a cell death process | 0.22 ± 0.05 µM | 1.59 | significant induction of apoptosis | 0.87 | 0.4 ± 0.02 µM | specific indication of an apoptotic process | decrease in the size of the nuclei, irreversible chromatin condensation, and nuclear fragmentation | 0.32 ± 0.02 µM | < 1 µM | 83 times | – | – | – | – | – | – | – | –
Aqua(1,10-phenanthroline-κ^2N,N’)(β^2-methylalaninate-κ^2N,O)copper(II) nitrate [Compound 3] | 0.21 ± 0.02 µM | induced morphological features that, in principle, indicate a cell death process | 0.24 ± 0.02 µM | 0.875 | significant induction of apoptosis | 0.6 | 0.35 ± 0.02 µM | specific indication of an apoptotic process | decrease in the size of the nuclei, irreversible chromatin condensation, and nuclear fragmentation | 0.19 ± 0.01 µM | < 1 µM | 83 times | – | – | – | – | – | – | – | –
O=[N+]([O-])[O-].O=[N+]([O-])[O-].[Cu+2] [Cu(NO3)2, Copper(II) nitrate] | 55.5 ± 2.03 µM | – | 47.8 ± 3.22 µM | – | – | – | 70.2 ± 2.03 µM | – | – | 47.6 ± 3.22 µM | – | – | – | – | – | – | – | – | – | –
N.N.[Cl][Pt][Cl] [Cisplatin, cis-[PtCl2(NH3)2]] | – | – | – | – | intense signal in the green channel (FITC) | – | – | – | – | – | – | – | 25 µM | 25 µM | show red nuclei, indicating a decrease in cell viability | 25 µM | 25 µM | 25 µM | DNA fragmentation is observed | evident change in nuclear structure
